How the values were obtained:
[1] = tested on: amnesia produced by electroconvulsive shock; experiment: reversal of electroconvulsive shock-induced amnesia, rats; type: in vivo
[2] = tested on: amnesia produced by electroconvulsive shock; experiment: reversal of electroconvulsive shock-induced amnesia, mice; type: in vivo
[3] = tested on: amnesia produced by electroconvulsive shock; experiment: as above; type: in vivo; remark: listed apart in the source
Protocol: The modified peptides in accordance with this invention are effective in treating senility, in enhancing memory, or of reversing the effects of electroconvulsive shock-induced amnesia. The effectiveness of these compounds is determined by the test designed to show the compound's ability to reverse amnesia produced by electroconvulsive shock. The test is more fully described in U.S. Pat. No. 4,145,347, issued Mar. 20, 1979, the disclosure of which is herein incorporated by reference. The only deviation in the present instance is that the compounds tested are administered orally, and the duration of the electroconvulsive shock administered is 1.0 seconds.

[4] = tested on: recall of learned information; details: two patients given bilateral electroconvulsive shock therapy (ECT); cited from earlier work
learning and memory = details: intranasal administration, young unimpaired human subjects, compared with placebo treatment; cited from earlier work
pole-climbing avoidance = details: cited from earlier work

Molecule	% Amnesia Reversal Rats ([1]; dose 0.001 mg/kg IM) [%]	Amnesia reversal rating, rats ([1]; dose 0.001 mg/kg IM)	% Amnesia Reversal Rats ([1]; dose 0.010 mg/kg IM) [%]	Amnesia reversal rating, rats ([1]; dose 0.010 mg/kg IM)	% Amnesia Reversal Rats ([1]; dose 0.100 mg/kg IM) [%]	Amnesia reversal rating, rats ([1]; dose 0.100 mg/kg IM)	other results
CC(C)CC(CSCC(=O)O)NC(=O)C1CC(=O)CN1C(=O)OCc1ccccc1 (stereo not drawn) [Z4-Keto ProLeu[CH2 S]Gly, [S-(R*,R*)]-Phenylmethyl 2-[[[1-[[(carboxymethyl)thio]methyl]-3-methylbutyl]amino]carbonyl]-4-oxo-1-pyrrolidinecarboxylate]	17	N (0 to 25 percent amnesia reversal (inactive=N))	50	A (40 percent or more amnesia reversal (active=A))	83	A (40 percent or more amnesia reversal (active=A))	
Cc1ccc(S(=O)(=O)N2CCCC2CN[C@@H](CC(C)C)C(=O)NCC(N)=O)cc1 (stereo partly drawn) [TosPro[CH2 NH]DLeuGlyNH2, (S)-N^2-[[1-[(4-Methylphenyl)sulfonyl]-2-pyrrolidinyl]methyl]-D-Leucylglycinamide]	0	N (0 to 25 percent amnesia reversal (inactive=N))	0	N (0 to 25 percent amnesia reversal (inactive=N))	34	C (25 to 39 percent amnesia reversal (borderline activity=C))	
CC(C)CC(CSCC(=O)O)NC(=O)C1CCCN1C(=O)OCc1ccccc1 (stereo not drawn) [ZProLeu[CH2 S]Gly, [2S-(R*,R*)]-Phenylmethyl2-[[[1-[[(carboxymethyl)thio]methyl]-3-methylbutyl]amino]carbonyl]-1-pyrrolidinecarboxylate]	57	N (0 to 25 percent amnesia reversal (inactive=N))	57	A (40 percent or more amnesia reversal (active=A))	14	N (0 to 25 percent amnesia reversal (inactive=N))	% Amnesia Reversal Mice ([2]; dose 0.1 mg/kg IM): 69%; Amnesia reversal rating, mice ([2]; dose 0.1 mg/kg IM): A (40 percent or more amnesia reversal (active=A)); % Amnesia Reversal Mice ([2]; dose 1.0 mg/kg IM): 77%; Amnesia reversal rating, mice ([2]; dose 1.0 mg/kg IM): A (40 percent or more amnesia reversal (active=A)); % Amnesia Reversal Mice ([2]; dose 10.0 mg/kg IM): 69%; Amnesia reversal rating, mice ([2]; dose 10.0 mg/kg IM): A (40 percent or more amnesia reversal (active=A))
NC(=O)COCC(Cc1ccccc1)NC(=O)[C@@H]1CCCN1C(=O)OCc1ccccc1 (stereo partly drawn) [ZProPhe[CH2 O]GlyNH2, (2S)-Phenylmethyl 2[[[1-[(2-amino-2-oxoethoxy)methyl]-2-phenylethyl]amino]carbonyl]-1-pyrrolidinecarboxylate]	11	N (0 to 25 percent amnesia reversal (inactive=N))	0	N (0 to 25 percent amnesia reversal (inactive=N))	0	N (0 to 25 percent amnesia reversal (inactive=N))	% Amnesia Reversal Mice ([3]; dose 1 mg/kg PO): 20%; Amnesia reversal rating, mice ([3]; dose 1 mg/kg PO): N (0 to 25 percent amnesia reversal (inactive=N)); % Amnesia Reversal Mice ([3]; dose 10 mg/kg PO): 59%; Amnesia reversal rating, mice ([3]; dose 10 mg/kg PO): A (40 percent or more amnesia reversal (active=A)); % Amnesia Reversal Mice ([3]; dose 100 mg/kg PO): 71%; Amnesia reversal rating, mice ([3]; dose 100 mg/kg PO): A (40 percent or more amnesia reversal (active=A))
CC(C)C[C@H](NC[C@@H]1CCCN1C(=O)OCc1ccccc1)C(=O)NCC(N)=O (relative stereo) [ZPro[CH2 NH]LeuGlyNH2, [S-(R*,R*)]-2-[[[[1-[(2-Amino-2-oxoethyl)amino]carbonyl]-3-methylbutyl]amino]methyl]-1-pyrrolidinecarboxylic acid, phenylmethyl ester]	11	N (0 to 25 percent amnesia reversal (inactive=N))	0	N (0 to 25 percent amnesia reversal (inactive=N))	0	N (0 to 25 percent amnesia reversal (inactive=N))	% Amnesia Reversal Mice ([3]; dose 1 mg/kg PO): 85%; Amnesia reversal rating, mice ([3]; dose 1 mg/kg PO): A (40 percent or more amnesia reversal (active=A)); % Amnesia Reversal Mice ([3]; dose 10 mg/kg PO): 67%; Amnesia reversal rating, mice ([3]; dose 10 mg/kg PO): A (40 percent or more amnesia reversal (active=A)); % Amnesia Reversal Mice ([3]; dose 100 mg/kg PO): 57%; Amnesia reversal rating, mice ([3]; dose 100 mg/kg PO): A (40 percent or more amnesia reversal (active=A))
1-desamino-8-D-arginine vasopressin [DDAVP]							effect on recall of learned information [4]: Positive effects on recall of learned information; effect on learning and memory (learning and memory): increases in learning and memory
CC(C)C[C@@H](CSCC(=O)O)NC(=O)[C@@H]1CCC(=O)N1C(=O)OCc1ccccc1 (relative stereo) [Z3-KetoProLeu[CH2 S]Gly, [S-(R*,R*)]-Phenylmethyl 5-oxo-2-[[[1-[[(carboxymethyl)thio]methyl]-3-methylbutyl]amino]carbonyl]-1-pyrrolidinecarboxylate]	33	C (25 to 39 percent amnesia reversal (borderline activity=C))	0	N (0 to 25 percent amnesia reversal (inactive=N))	0	N (0 to 25 percent amnesia reversal (inactive=N))	
NC(=O)CC[C@@H]1NC(=O)[C@H](Cc2ccccc2)NC(=O)[C@H](Cc2ccc(O)cc2)NC(=O)[C@@H](N)CSSC[C@@H](C(=O)N2CCC[C@H]2C(=O)N[C@@H](CCCN=C(N)N)C(=O)NCC(N)=O)NC(=O)[C@H](CC(N)=O)NC1=O [vasopressin]							effect on learning and memory (learning and memory): increases in learning and memory
CC(C)C[C@@H](CNCC(N)=O)NC(=O)[C@@H]1CCCN1C(=O)OCc1ccccc1.Cl (relative stereo) [ZProLeu[CH2 NH]GlyNH2, [S-(R*,R*)]-2-[[[1-[[(2-Amino-2-oxoethyl)-amino]methyl]-3-methylbutyl]amino]-carbonyl]-1-pyrrolidinecarboxylic acid, phenylmethyl ester, monohydrochloride]	43	A (40 percent or more amnesia reversal (active=A))	43	A (40 percent or more amnesia reversal (active=A))	43	A (40 percent or more amnesia reversal (active=A))	
Pro-Arg-Gly-NH2							activity in the rat pole-climbing avoidance test (pole-climbing avoidance): active
